In patent US11078232B2, “Preparation and use of molecular site targeted and activated kinase inhibitor” (Yafei Shanghai Biology Medicine Science & Technology Co. …, priority 2017, dated 2021):
Read-outs that look alike come from different tables or passages of the source. Residues, ends and D or L forms follow the SMILES beside them. *: point of attachment. Doxorubicin(3'-N) = COc1cccc2c1C(=O)c1c(O)c3c(c(O)c1C2=O)C[C@@](O)(C(=O)CO)C[C@@H]3O[C@H]1C[C@H](N*)[C@H](O)[C@H](C)O1; X1 = CN(CCNC(=O)c1cc(Oc2ccc(NC(=O)Nc3ccc(Cl)c(C(F)(F)F)c3)cc2)ccn1)*; Hexanoyl(6-maleimido) = O=C1C=CC(=O)N1CCCCCC(=O)*

Assays:
[1] = Solid stability, 60° C. for 10 days in the dark (HPLC); assay type: physicochemical
Experimental: The test was carried out by leaving it at 60° C. for 10 days in the dark. The ratio of the change in the content of the compound to the compound at time 0 was measured by HPLC, and the stability value (%) was calculated.

[2] = MTD (maximum tolerated dose) acute toxicity in mice; assay type: in vivo, mouse; conditions: mouse, in vivo, BALB/C mice, intravenous, observed 17 days; for MTD at 17 days: female
From the text: (§1) Test purpose: to investigate the acute toxicity of highly activated compounds by targeted site molecules of the invention by measuring the MTD (maximum tolerated dose) experiment in mice.
(§2) The injections of each drug and the control drug were uniformly dissolved using water for injection, and diluted to the corresponding dose with physiological saline during the test.
(§3) Methods and results: […] BALB/C mice, weighing 19-21 g, were randomly divided into 10 groups, with 10 mice in each group. […] A control test of the saline group and the adriamycin group injection (commercially available, Beijing Yue kang) was carried out, and the injection volume of each mouse was 0.2 ml. […] On the D3, D5, and D14, blood samples were taken for whole blood count.

[3] = test system: BALB/C mouse; assay: as above; assay type: in vivo; conditions: intravenous; for Number of deaths: 10 mice per group; for Death dose: observed 17 days
From the text: as §1, §2, §3

[4] = test system: CT26 tumor cells; assay: CT26 treatment model (Example 17); assay type: in vivo, mice; conditions: CT26 model as in Example 15
Experimental: (§4) 1) CT26 tumor cells were purchased from ATCC, and the cells were cultured using a 10% fetal bovine serum DMEM medium at 37° C., 5% CO2. The cells were passaged every 3 days and the cells were used within 15 generations.
(§5) 2) Tumor production: 10^6 live CT26 tumor cells were injected subcutaneously into the back of tumor-immunized […], and treatment was started when the tumor grew to about 0.3-0.4 cm. The tumor size (mm^3) of the mice was recorded and compared with the solvent control group. The tumor inhibition rate on day 42 was calculated in the solvent control group.
(§6) 3) Treatment process: IV injection is used, and the drug is used at a dose of ⅓ MTD once a week Immunosuppressive IV injection treatment once a week for a total of 6 weeks of treatment.
(§7) 4) The cure rate of 10 in each group was counted. After 50 days, the cured mice and wild groups were inoculated […] to detect recurrence.
The CT26 immunotherapy model was constructed as in Example 15, and the pharmacodynamic and immunotherapeutic effects of the compounds S4-S6, S9-S12 and S15-S18 in the CT26 treatment model were tested.

[5] = test system: D121 lung cancer cells; assay: D121 lung cancer immunotherapy model; conditions: for Tumor inhibition rate/% (week 7) / CD8: CD45 (%): single agent; for Tumor inhibition rate/% (week 7): i.v. ⅙ MTD once a week for 4 weeks; for CD8: CD45 (%): tumor CD8+ T cells among CD45-positive cells
Experimental: (1) D121 lung cancer cells purchased from ATCC were cultured in DMEM medium containing 10% fetal bovine serum at 37° C. and 5% CO2, and the cells were digested with EDTA trypsin according to routine use, and passed two to three times a week for placement.
(2) Animals: C57 BALB/C mice, 6-8 weeks old, female, weighing about 18-22 g, purchased from Shanghai SLAC Laboratory Animal Co., Ltd.
3) Immunization: Mice were intraperitoneally injected with 100 μL of 5×10^5 D121 lung cancer cells that died by repeated freeze-thaw cycles, and immunized 3 times with an interval of 2 weeks.
4) Cell seeding: Collect the tumor cells in logarithmic growth phase, adjust the D121 cell concentration to (1×10^7/ml) with DMEM basal medium, 0.1 ml of the cell suspension was inoculated to the right side of each mouse subcutaneously with a 1 ml syringe. […] Tumor volume was observed and measured, and the average tumor volume reached 100-200 mm^3 about 7 days after inoculation, that is, tumor cell-bearing mice were grouped and administered. The immunized group in Table 9 was immunized with D121 lung cancer cells, and the D121 dead tumor cell immunized group was injected with physiological saline as a control.
The immunosuppressive regulatory point protein Anti-PD-L1 antibody was injected twice a week. A total of two weeks.
6) Experimental observation: During the whole experiment, the use and observation of experimental animals were carried out in accordance with the regulations of AAALAC. The experimental animals were observed daily after inoculation of tumor cells, and their onset and death were recorded. During the routine experiment, all experimental animals were monitored and recorded for behavior, feeding, water intake, weight change, hair shine and other abnormalities.
(7) Analysis of tumor CD8+ T cells (T lymphocyte subsets). Tumor tissues were ground and single cancer cells were isolated by filtration using 40 μm Nylon cell strainer, lysed twice with blood cell lysis buffer for 20 min, washed twice with 1% BSA-PBS buffer, centrifuged, and resuspended, and then the cells were counted again. 1×10^5 cells were incubated with leukocyte co-antigen CD45-PE and CD8-FITC-labeled antibody for 1 hour at room temperature in the dark, and then analyzed the proportion of T lymphocyte antigen (CD8) in leukocyte common antigen (CD45)-positive cells by flow cytometry.

[6] = test system: CT26 tumor cells; assay: CT26 immunotherapy model (Example 15); assay type: in vivo, mice
Experimental: as §4, §5, §6, §7

[7] = solid, 60° C., 10 days, dark, content versus time 0

SMILES | Stability verdict (stable / unstable) [1] | Stability(%) [1] | MTD at 17 days [2] [mg/kg] | Number of deaths [3] | Death dose [3] [mg/kg] | CD8: CD45 (%) [4] [%] | Number of animals cured [4] | Recurrence rate/% (at week 10) [4] [%] | Tumor inhibition rate/% (at week 7) [4] [%] | Stability verdict (stable / unstable) ([1]; solid, 60° C., 10 days, dark) | Stability(%) [1, 7] [%] | Tumor inhibition rate/% (week 7) [5] [%] | CD8: CD45 (%) ([5]; flow cytometry) | effect on T cells ([5]; flow cytometry, discussion of Table 6) | Cure rate % ([6]; 10 in each group) [%] | Number of cures ([6]; 10 in each group) | Tumor inhibition rate % (Day 42) ([6]; IV ⅓ MTD once a week, 6 weeks) [%] | MTD [2] [mg/kg]
COc1cccc2c1C(=O)c1c(O)c3c(c(O)c1C2=O)C[C@@](O)(C(=O)CO)C[C@@H]3O[C@H]1C[C@H](NC(=O)[C@H](CC(C)C)NC(=O)[C@H](CC(N)=O)NC(=O)[C@H](C)NC(=O)[C@H](C)NC(=O)CCCCCN2C(=O)C=CC2=O)[C@H](O)[C@H](C)O1 [Compound C11, EMC-AANL-Adriamycin, reference compound] ({Hexanoyl(6-maleimido)}-AANL-{Doxorubicin(3'-N)}) | 96.5, stable | 96.5, stable % | 110 | 2 | 120 | – | – | – | – | – | – | – | – | – | – | – | – | –
COc1cccc2c1C(=O)c1c(O)c3c(c(O)c1C2=O)C[C@](O)(C(=O)CO)CC3OC1C[C@H](NC(=O)OCc2ccc(NC(=O)C(CC(N)=O)NC(=O)C(C)NC(=O)C(NC(=O)[C@H](O)[C@H](O)[C@@H](O[C@@H]3O[C@H](CO)[C@H](O)[C@H](O)[C@H]3O)[C@H](O)CO)C(C)C)cc2)[C@H](O)[C@H](C)O1 (stereo partly shown) [Compound S9] | – | – | 100 | 2 | 120 | 13.8 | 3 | 0 | 66.7 | – | – | – | – | – | – | – | – | –
C[C@H](N)C(=O)N[C@@H](C)C(=O)N[C@@H](CC(N)=O)C(=O)Nc1ccc(COC(=O)N(C)CCNC(=O)c2cc(Oc3ccc(NC(=O)Nc4ccc(Cl)c(C(F)(F)F)c4)cc3)ccn2)cc1 [Compound C2, AAN-PABC-Compound a, reference compound] | – | – | 60 | 2 | 70 | – | – | – | – | unstable | 89.4 | – | – | – | – | – | – | –
CC(C)C[C@H](NC(=O)[C@H](CC(N)=O)NC(=O)[C@H](C)NC(=O)[C@H](C)N)C(=O)N(C)CCNC(=O)c1cc(Oc2ccc(NC(=O)Nc3ccc(Cl)c(C(F)(F)F)c3)cc2)ccn1 [Compound C1, AANL-Compound a, reference compound] (H-AANL-X1) | – | – | 65 | 1 | 80 | – | – | – | – | stable | 96.8 | – | – | – | – | – | – | –
CC(NC(=O)C(NC(=O)[C@H](O)[C@H](O)[C@@H](O[C@@H]1O[C@H](CO)[C@H](O)[C@H](O)[C@H]1O)[C@H](O)CO)C(C)C)C(=O)NC(CC(N)=O)C(=O)Nc1ccc(COC(=O)N2CC(C)(C)c3ccc(NC(=O)c4cccnc4NCc4ccncc4)cc32)cc1 (stereo partly shown) [Compound S12] | – | – | 290 | 1 | 300 | 10.8 | 1 | 0 | 55.5 | – | – | – | – | – | – | – | – | –
CC(NC(=O)C(C)NC(=O)[C@H](O)[C@H](O)[C@@H](O[C@@H]1O[C@H](CO)[C@H](O)[C@H](O)[C@H]1O)[C@H](O)CO)C(=O)NC(CC(N)=O)C(=O)Nc1ccc(COC(=O)N2CC(C)(C)c3ccc(NC(=O)c4cccnc4NCc4ccncc4)cc32)cc1 (stereo partly shown) [Compound S6] | – | – | 280 | 1 | 290 | 14.9 | 1 | 0 | 66.7 | – | – | 73.4 | 14.4 | – | – | – | – | –
COc1cccc2c1C(=O)c1c(O)c3c(c(O)c1C2=O)C[C@@](O)(C(=O)CO)C[C@@H]3O[C@H]1C[C@H](N)[C@H](O)[C@H](C)O1 [Adriamycin, reference compound] | – | – | – | 3 | 10 | 6.4 | 0 | – | 14.6 | – | – | 14.6 | 5.4 | inhibited T cells | 0 | 0 | 24.5 | –
COc1cccc2c1C(=O)c1c(O)c3c(c(O)c1C2=O)C[C@](O)(C(=O)CO)CC3OC1C[C@H](NC(=O)OCc2ccc(NC(=O)C(CC(N)=O)NC(=O)C(C)NC(=O)C(NC(=O)[C@H](O)[C@H](O)[C@@H](O[C@@H]3O[C@H](CO)[C@H](O)[C@H](O)[C@H]3O)[C@H](O)CO)C(C)O)cc2)[C@H](O)[C@H](C)O1 (stereo partly shown) [Compound S15] | – | – | 90 | 1 | 100 | 15.3 | 1 | 0 | 70.2 | – | – | – | – | – | – | – | – | –
CC(NC(=O)C(NC(=O)[C@H](O)[C@H](O)[C@@H](O[C@@H]1O[C@H](CO)[C@H](O)[C@H](O)[C@H]1O)[C@H](O)CO)C(C)O)C(=O)NC(CC(N)=O)C(=O)Nc1ccc(COC(=O)N2CC(C)(C)c3ccc(NC(=O)c4cccnc4NCc4ccncc4)cc32)cc1 (stereo partly shown) [Compound S18] | – | – | 280 | 2 | 290 | 15.6 | 2 | 0 | 71.7 | – | – | – | – | – | – | – | – | –
CC(NC(=O)C(NC(=O)[C@H](O)[C@H](O)[C@@H](O[C@@H]1O[C@H](CO)[C@H](O)[C@H](O)[C@H]1O)[C@H](O)CO)C(C)C)C(=O)NC(CC(N)=O)C(=O)Nc1ccc(COC(=O)Nc2nccc(-c3sc(C(C)(C)C)nc3-c3cccc(NS(=O)(=O)c4c(F)cccc4F)c3F)n2)cc1 (stereo partly shown) [Compound S10] | – | – | 310 | 1 | 320 | 15.9 | 2 | 0 | 76.7 | – | – | – | – | – | – | – | – | –
CC(NC(=O)C(C)NC(=O)[C@H](O)[C@H](O)[C@@H](O[C@@H]1O[C@H](CO)[C@H](O)[C@H](O)[C@H]1O)[C@H](O)CO)C(=O)NC(CC(N)=O)C(=O)Nc1ccc(COC(=O)Nc2c(-c3nc4ccc(N5CCN(C)CC5)cc4[nH]3)c(=O)[nH]c3cccc(F)c23)cc1 (stereo partly shown) [Compound S5] | – | – | 310 | 2 | 320 | 11.5 | 1 | 0 | 60.1 | – | – | 76.7 | 15.3 | – | – | – | – | –
CC(NC(=O)C(NC(=O)[C@H](O)[C@H](O)[C@@H](O[C@@H]1O[C@H](CO)[C@H](O)[C@H](O)[C@H]1O)[C@H](O)CO)C(C)C)C(=O)NC(CC(N)=O)C(=O)Nc1ccc(COC(=O)Nc2c(-c3nc4ccc(N5CCN(C)CC5)cc4[nH]3)c(=O)[nH]c3cccc(F)c23)cc1 (stereo partly shown) [Compound S11] | – | – | 300 | 2 | 330 | 15.1 | 2 | 0 | 69.3 | – | – | – | – | – | – | – | – | –
CC(NC(=O)C(NC(=O)[C@H](O)[C@H](O)[C@@H](O[C@@H]1O[C@H](CO)[C@H](O)[C@H](O)[C@H]1O)[C@H](O)CO)C(C)O)C(=O)NC(CC(N)=O)C(=O)Nc1ccc(COC(=O)Nc2c(-c3nc4ccc(N5CCN(C)CC5)cc4[nH]3)c(=O)[nH]c3cccc(F)c23)cc1 (stereo partly shown) [Compound S17] | – | – | 290 | 1 | 310 | 16.2 | 1 | 0 | 70.9 | – | – | – | – | – | – | – | – | –
C[C@H](NC(=O)[C@@H](NC(=O)[C@H](O)[C@@H](O)[C@H](O[C@@H]1O[C@H](CO)[C@H](O)[C@H](O)[C@H]1O)[C@H](O)CO)[C@@H](C)O)C(=O)N[C@@H](CC(N)=O)C(=O)Nc1ccc(COC(=O)Nc2nccc(-c3sc(C(C)(C)C)nc3-c3cccc(NS(=O)(=O)c4c(F)cccc4F)c3F)n2)cc1 [Compound S16] | – | – | – | 2 | 300 | 15.5 | 2 | 0 | 71.6 | – | – | – | – | – | – | – | – | 290
